# Marks after values point to notes of the source that are not given here.
# Key:
# [1] = target: T1, 5HT5A (Homo sapiens, UniProt P47898); experiment: GPCRmax screen, agonist mode; assay type: cell-based
# T1 construct: beta-galactosidase enzyme fragment (PathHunter complementation tag); host or cells: PathHunter cell lines
# [2] = system: mice; experiment: Mouse fear extinction paradigm (PTSD model); assay type: in vivo; conditions: methylone 30 mg/kg IP; day 3
# Excerpt: Effective PTSD treatments facilitate the disassociation between a traumatic memory and the patient's fear response, making cues for the traumatic memory evoke less of a fear response. This is modeled in the mouse fear extinction paradigm (see FIG. 9A) which takes place over 3 days. On day 1 (fear conditioning), mice are trained to acquire a “traumatic memory,” namely associating the conditioned stimulus (CS, tone) to the unconditioned stimulus (US, foot shock). On day 2 (extinction training), they are trained to forget the traumatic memory association by presenting the CS 6 times (with no US) in a novel environment. On day 3 (extinction recall), the mice are “asked” if that tone (CS) still elicits a fearful response, as measured by the time spent freezing when the tone is presented. Less time freezing means better extinction recall. Drugs that improve extinction recall reduce freezing time on day 3, and, therefore, show potential as a PTSD treatment.
# [3] = target: T2, 5HT2A receptor (Homo sapiens, UniProt P28223); experiment: GPCRmax screen, antagonist mode; assay type: cell-based
# T2 construct: beta-galactosidase enzyme fragment (PathHunter complementation tag); host or cells: PathHunter cell lines
# [4] = system: 168 GPCRs; experiment: β-arrestin based GPCR screen (PathHunter / GPCRmax), agonist mode; assay type: cell-based
# Procedure: For agonist determination, cells were incubated with sample to induce response. […] Vehicle concentration was 1%.
# [5] = system: gene expression in amygdala, frontal cortex, hippocampus; experiment: RNA-sequencing of brain areas after a single dose; assay type: in vivo, rat; conditions: 10 mg/kg IP each
# [6] = cited from earlier work
# [7] = target: T3, 5HT2C receptor (Homo sapiens, UniProt P28335); experiment: GPCRmax screen, antagonist mode; assay type: cell-based
# T3 construct: beta-galactosidase enzyme fragment (PathHunter complementation tag); host or cells: PathHunter cell lines
# [8] = system: C57BL/6J mice; experiment: Cued fear conditioning, extinction training and recall (Example 35); assay type: in vivo, mouse
# Procedure: Methods: Cued fear conditioning was performed in C57BL/6J mice. On day 1, animals were placed in the chambers and presented with a training session (CS-US pairing). The training consisted of a 2-minute habituation followed by a 30-second, 80 dB tone; during the last 2 seconds of the tone animals received a 1 mA foot shock. This US-CS procedure occurred once for a total of one paired presentation of tone and shock. Freezing behavior (immobility) was recorded in 5-10-sec intervals during the session. Percent baseline freezing behavior was determined in the 2-minute habituation period. On day 3, animals were placed in context B, in which tactile and odor cues differed from context A. Following a 2 minute acclimation period animals received 4×30 sec presentations of the CS (tone) in the absence of the US (footshock), with a 45 sec interval between presentations. Freezing was recorded in 5-10-sec intervals to measure baseline freezing response to the altered context, and freezing response to each tone cue presentation. […] Freezing was recorded in 5-10-sec intervals to measure baseline freezing response to the altered context, and freezing response to each tone cue presentation.
# [9] = system: C57BL/6J mice; experiment: Mouse head-twitch response (HTR) test; assay type: in vivo; conditions: i.p., any dose tested, HTR measured for 10 minutes
# Procedure: Head twitch response (HTR) was evaluated using C57BL/6J mice (ages 7-10 weeks), Mice were ear tagged at least three days after arrival to the animal facility and allowed to rest for at least three days before behavioral testing. Small magnets (SuperMagnetMan—N45 magnet 3 mm diameter, 0.5 mm thickness) were glued to ear tags (Stoelting—La Pias Aluminum Ear Tags) at least two days before mice were ear tagged. The experimental setup was adapted from Gonzales-Maeso (de la Fuente Revenga et al., 2019) and Kwan (Jefferson et al., 2022; Savalia et al., 2021), including experimental apparatus and MATLAB code for analysis.
# Doses were randomly assigned, and age-matched controls were injected with vehicle and randomly interspersed with drug conditions. At least three animals per sex were used for each drug dose and condition. If animals were used in multiple HTR experiments, experimental sessions took place at least one week apart. Two animals were run at a time. Immediately after i.p. injection of psychedelic or entactogen drug, animals were placed in separate plastic boxes within a larger chamber (Home Depot—28 in. W×32 in. H×21.5 in. D), and HTR was measured for 10 minutes. A small lamp was placed in the back of the larger chamber, and a high-speed camera (Basler—Aca 1920-155 μm) was suspended from the ceiling to record video of the animals in the plastic boxes. […]
# [10] = system: patients with PTSD or MDD; experiment: Methylone case series, Cohort 2: CGI-S/CGI-I efficacy and safety; assay type: in vivo, human
# Procedure: CGI-S scale was also evaluated in a subset of patients from Cohort 2 post-treatment. Cohort 2 was evaluated for any observed or reported safety events following a single dosing session. Clinical Global Improvement Scale
# Clinical Global Impressions (CGI) scale includes 2 components: CGI-S (“severity”) and CGI-I (“improvement”).
# Cohort 2 is composed of 28 patients with PTSD or MDD treated in an outpatient setting.
# Only sessions that included methylone dosing were counted as dosing sessions.
# Single sessions occurred for 8 of the 28 cases with no booster in two of these cases. In the remainder of the cases, multiple sessions occurred, and booster doses were used in all or some of the remaining patients ([…]) with multiple booster doses used in some or all of the sessions in 15 patients.
# [11] = Cohort 2, N = 28, highest observed
# T2 sequence (P28223 whole entry, the tested form may be a part): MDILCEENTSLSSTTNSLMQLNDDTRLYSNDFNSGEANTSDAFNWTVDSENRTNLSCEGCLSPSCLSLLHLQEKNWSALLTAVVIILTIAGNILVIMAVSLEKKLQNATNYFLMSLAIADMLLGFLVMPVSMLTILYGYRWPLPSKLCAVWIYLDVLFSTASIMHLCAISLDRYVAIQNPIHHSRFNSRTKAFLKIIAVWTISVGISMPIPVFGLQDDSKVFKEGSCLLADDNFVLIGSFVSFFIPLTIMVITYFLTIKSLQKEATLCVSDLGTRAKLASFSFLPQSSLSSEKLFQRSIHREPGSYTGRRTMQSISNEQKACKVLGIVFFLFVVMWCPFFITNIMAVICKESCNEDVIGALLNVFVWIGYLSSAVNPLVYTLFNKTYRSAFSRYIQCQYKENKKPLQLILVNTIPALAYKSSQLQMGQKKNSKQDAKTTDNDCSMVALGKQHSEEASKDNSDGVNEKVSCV
# T3 sequence (P28335 33-458): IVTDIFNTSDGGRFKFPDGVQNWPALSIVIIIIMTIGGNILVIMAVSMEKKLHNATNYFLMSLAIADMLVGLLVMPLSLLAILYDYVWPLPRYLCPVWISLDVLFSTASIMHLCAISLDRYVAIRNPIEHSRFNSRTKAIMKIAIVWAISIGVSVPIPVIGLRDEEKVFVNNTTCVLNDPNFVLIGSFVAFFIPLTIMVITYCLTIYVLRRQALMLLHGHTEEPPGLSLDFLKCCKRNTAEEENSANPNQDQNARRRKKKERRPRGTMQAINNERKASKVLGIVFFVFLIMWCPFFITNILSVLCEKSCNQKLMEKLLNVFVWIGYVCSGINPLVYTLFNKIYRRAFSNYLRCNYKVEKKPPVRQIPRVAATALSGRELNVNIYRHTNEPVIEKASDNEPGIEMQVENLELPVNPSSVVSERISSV
# T1 sequence (P47898 whole entry, the tested form may be a part): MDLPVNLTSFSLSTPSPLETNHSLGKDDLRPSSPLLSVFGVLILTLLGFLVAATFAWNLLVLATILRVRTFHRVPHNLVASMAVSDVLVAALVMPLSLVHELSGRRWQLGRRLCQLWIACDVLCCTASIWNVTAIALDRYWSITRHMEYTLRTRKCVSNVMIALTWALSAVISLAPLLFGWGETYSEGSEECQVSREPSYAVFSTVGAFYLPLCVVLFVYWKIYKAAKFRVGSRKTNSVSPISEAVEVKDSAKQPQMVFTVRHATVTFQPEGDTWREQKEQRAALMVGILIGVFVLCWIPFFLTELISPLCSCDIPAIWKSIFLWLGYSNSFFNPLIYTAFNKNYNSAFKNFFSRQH
smiles,measurement,setting,value
"CNC(C)C(=O)c1ccc2c(c1)OCO2 (stereo not drawn) [methylone, 3,4-methylenedioxy-N-methylcathinone]","agonist % activity, greatest activity detected","[1]; 1 or 10 mM, threshold 30%",13.9%
same,activity at 10 µM,"[1]; HTR5A, Agonist mode, 10 uM",13.9%
same,activity at 1 µM,"[1]; HTR5A, Agonist, 1 uM",13.6%
same,locomotion during testing session,[2],no differences between groups in locomotion
same,antagonist activity (% inhibition),"[3]; 1 or 10 mM, threshold 50%",no agonist or antagonist activity
same,activity at 10 µM,"[3]; HTR2A, Antagonist mode, 10 uM",-2.7%
same,activity at 1 µM,"[3]; HTR2A, Antagonist, 1 uM",-7.9%
same,agonist activity at any of the 168 GPCRs (criterion >30% activity),[4]; 1 and 10 micromolar,did not meet criteria for agonist or antagonist activity
same,% Activity,"[4]; DRD2S, Agonist mode, 10 uM",0.6%
same,% Activity,"[4]; DRD2S, Agonist, 1 uM",0%
same,% Activity,"[4]; NPSR1b, Agonist mode, 10 uM",4.8%
same,% Activity,"[4]; NPSR1b, Agonist, 1 uM",−1.3%
same,"genes regulated by methylone that are also regulated by MDMA, amygdala",[5],87%
same,time to peak brain and serum concentration,"[6]; rats, intraperitoneal administration",15 to 30 min
same,half-life shorter than MDMA,[6]; relative to MDMA,> 50%
same,antagonist activity (% inhibition),"[7]; 1 or 10 mM, threshold 50%",no agonist or antagonist activity
same,activity at 10 µM,"[7]; HTR2C, Antagonist mode, 10 uM",24.2%
same,activity at 1 µM,"[7]; HTR2C, Antagonist, 1 uM",21.1%
same,fear extinction training on day 3,"[8]; all doses: 10, 20 or 30 mg/kg IP",significantly improved fear extinction training
same,effect on fear extinction training and testing,[8]; methylone 30 mg/kg IP 30 min before extinction training on Day 3,"rapid, robust and long-lasting beneficial effect"
same,head-twitch behaviors,[9],no effect on head-twitch behaviors at any dose tested
same,head-twitch behaviors,[9]; listed as Methylone,no hallucinogenic activity
same,Magnitude of Improvement: Number of cases with CGI-I 1,[10]; [11],11* cases
same,Magnitude of Improvement: Number of cases with CGI-I 2,[10]; [11],13 cases
same,Magnitude of Improvement: Number of cases with CGI-I 3,[10]; [11],4 cases
same,Magnitude of Improvement: Number of cases with CGI-I 4,[10]; [11],0 cases
same,Magnitude of Improvement: Number of cases with CGI-I 5,[10]; [11],0 cases
same,Magnitude of Improvement: Number of cases with CGI-I 6,[10]; [11],0 cases
same,Magnitude of Improvement: Number of cases with CGI-I 7,[10]; [11],0 cases
same,number of patients with adverse events following methylone dosing,"[10]; Cohort 2, N = 28, all ≥65 years of age",3 patients
